Laboratory results published in patent US20250270213A1, “PI3Ka INHIBITORS” (Synnovation Therapeutics, Inc., priority 2022, published 2025).

What follows are compounds tested on T47D (PIK3CA H1047R) cells (assay: pS473 AKT assay with 2.5% FBS, T47D cells). Settings: Homo sapiens, pSer473 AKT, DMEM with 2.5% FBS, 2 h treatment, read-out: T47D_IC50.
Type: cell-based
Method in brief: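 In-cell chemiluminescent ELISA of AKT Ser473 phosphorylation, using anti-pSer473 primary and HRP secondary antibodies on fixed cells. T47D (PIK3CA H1047R) cells had 2 h of compound treatment in DMEM containing 2.5% FBS; IC50 derived from dose-response.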

IC50 [µM]	SMILES
< 1	CCn1ncc2c3c(C(C)Nc4ccc(Cl)nc4-c4ncn(C)n4)cc(C)cc3c(=O)n(CC(F)F)c21 (centres unmarked) [Example 236, 9-(1-((6-chloro-2-(1-methyl-1H-1,2,4-triazol-3-yl)pyridin-3-yl)amino)ethyl)-4-(2,2-difluoroethyl)-3-ethyl-7-methyl-3,4-dihydro-5H-pyrazolo[3,4-c]isoquinolin-5-one]
< 1	CCn1ncc2c3c(C(C)Nc4ccc(Cl)nc4-c4ccnc(C)c4)cc(C)cc3c(=O)n(CC(F)F)c21 (centres unmarked) [Example 237, 9-(1-((6-chloro-2′-methyl-[2,4′-bipyridin]-3-yl)amino)ethyl)-4-(2,2-difluoroethyl)-3-ethyl-7-methyl-3,4-dihydro-5H-pyrazolo[3,4-c]isoquinolin-5-one]
< 1	CCn1ncc2c3c(C(C)Nc4ccc(Cl)nc4-c4cncnc4)cc(C)cc3c(=O)n(CC(F)F)c21 (centres unmarked) [Example 238, 9-(1-((6-chloro-2-(pyrimidin-5-yl)pyridin-3-yl)amino)ethyl)-4-(2,2-difluoroethyl)-3-ethyl-7-methyl-3,4-dihydro-5H-pyrazolo[3,4-c]isoquinolin-5-one]
< 1	CCn1ncc2c3c(C(C)Nc4ccc(Cl)nc4-c4ccc(=O)n(C)c4)cc(C)cc3c(=O)n(CC(F)F)c21 (centres unmarked) [Example 239, 9-(1-((6-chloro-1′-methyl-6′-oxo-1′,6′-dihydro-[2,3′-bipyridin]-3-yl)amino)ethyl)-4-(2,2-difluoroethyl)-3-ethyl-7-methyl-3,4-dihydro-5H-pyrazolo[3,4-c]isoquinolin-5-one]
< 1	CCn1ncc2c3c(C(C)Nc4ccc(Cl)nc4-c4ccc(C(=O)NC)nc4)cc(C)cc3c(=O)n(CC(F)F)c21 (centres unmarked) [Example 240, 6-chloro-3-((1-(4-(2,2-difluoroethyl)-3-ethyl-7-methyl-5-oxo-4,5-dihydro-3H-pyrazolo[3,4-c]isoquinolin-9-yl)ethyl)amino)-N-methyl-[2,3′-bipyridine]-6′-carboxamide]
< 1	CCn1ncc2c3c(C(C)Nc4ccc(Cl)nc4C4CCN(C(C)=O)CC4)cc(C)cc3c(=O)n(C)c21 (centres unmarked) [Example 241, 9-[1-[[2-(1-Acetyl-4-piperidyl)-6-chloro-3-pyridyl]amino]ethyl]-3-ethyl-4,7-dimethyl-pyrazolo[3,4-c]isoquinolin-5-one]
< 1	Cc1cc(C(C)Nc2ccc(Cl)nc2-c2ncn(C)n2)c2c(c1)c(=O)n(C)c1c2cnn1CCO (centres unmarked) [Example 242, 9-(1-((6-Chloro-2-(1-methyl-1H-1,2,4-triazol-3-yl)pyridin-3-yl)amino)ethyl)-3-(2-hydroxyethyl)-4,7-dimethyl-3,4-dihydro-5H-pyrazolo[3,4-c]isoquinolin-5-one]
< 1	CNC(=O)c1ccc(-c2nc(Cl)ccc2NC(C)c2cc(C)cc3c(=O)n(C)c4c(cnn4CCO)c23)cc1F (centres unmarked) [Example 243, 4-(6-chloro-3-((1-(3-(2-hydroxyethyl)-4,7-dimethyl-5-oxo-4,5-dihydro-3H-pyrazolo[3,4-c]isoquinolin-9-yl)ethyl)amino)pyridin-2-yl)-2-fluoro-N-methylbenzamide]
< 1	Cc1cc(C(C)Nc2ccc(Cl)nc2-c2cnn(C)c2)c2c(c1)c(=O)n(C)c1c2cnn1CCO (centres unmarked) [Example 244, 9-(1-((6-chloro-2-(1-methyl-1H-pyrazol-4-yl)pyridin-3-yl)amino)ethyl)-3-(2-hydroxyethyl)-4,7-dimethyl-3,4-dihydro-5H-pyrazolo[3,4-c]isoquinolin-5-one]
< 1	Cc1cc(C(C)Nc2ccc(Cl)nc2N2CCC(O)CC2)c2c(c1)c(=O)n(C)c1c2cnn1CCO (centres unmarked) [Example 245, 9-(1-((6-chloro-2-(4-hydroxypiperidin-1-yl)pyridin-3-yl)amino)ethyl)-3-(2-hydroxyethyl)-4,7-dimethyl-3,4-dihydro-5H-pyrazolo[3,4-c]isoquinolin-5-one]
< 1	Cc1cc(C(C)Nc2ccc(Cl)nc2-c2ccc3ncccc3c2)c2c(c1)c(=O)n(C)c1c2cnn1CCO (centres unmarked) [Example 246, 9-(1-((6-chloro-2-(quinolin-6-yl)pyridin-3-yl)amino)ethyl)-3-(2-hydroxyethyl)-4,7-dimethyl-3,4-dihydro-5H-pyrazolo[3,4-c]isoquinolin-5-one]
< 1	Cc1cc(C(C)Nc2ccc(Cl)nc2-c2ccc3c(cnn3C)c2)c2c(c1)c(=O)n(C)c1c2cnn1CCO (centres unmarked) [Example 247, 9-(1-((6-chloro-2-(1-methyl-1H-indazol-5-yl)pyridin-3-yl)amino)ethyl)-3-(2-hydroxyethyl)-4,7-dimethyl-3,4-dihydro-5H-pyrazolo[3,4-c]isoquinolin-5-one]
< 1	Cc1cc(C(C)Nc2ccc(Cl)nc2-c2ccc3c(c2)CN(C)C3=O)c2c(c1)c(=O)n(C)c1c2cnn1CCO (centres unmarked) [Example 248, 9-(1-((6-chloro-2-(2-methyl-1-oxoisoindolin-5-yl)pyridin-3-yl)amino)ethyl)-3-(2-hydroxyethyl)-4,7-dimethyl-3,4-dihydro-5H-pyrazolo[3,4-c]isoquinolin-5-one]
< 1	Cc1cc(C(C)Nc2ccc(C)nc2-c2cnn(C)c2)c2c(c1)c(=O)n(C)c1c2cnn1CCO (centres unmarked) [Example 249, 3-(2-hydroxyethyl)-4,7-dimethyl-9-(1-((6-methyl-2-(1-methyl-1H-pyrazol-4-yl)pyridin-3-yl)amino)ethyl)-3,4-dihydro-5H-pyrazolo[3,4-c]isoquinolin-5-one]
< 1	Cc1cc(C(C)Nc2ccc(Cl)nc2-c2nnco2)c2c(c1)c(=O)n(C)c1c2cnn1CCO (centres unmarked) [Example 250, 9-(1-((6-chloro-2-(1,3,4-oxadiazol-2-yl)pyridin-3-yl)amino)ethyl)-3-(2-hydroxyethyl)-4,7-dimethyl-3,4-dihydro-5H-pyrazolo[3,4-c]isoquinolin-5-one]
< 1	Cc1cc(C(C)Nc2ccc(Cl)nc2-c2nnn(C)n2)c2c(c1)c(=O)n(C)c1c2cnn1CCO (centres unmarked) [Example 251, 9-(1-((6-chloro-2-(2-methyl-2H-tetrazol-5-yl)pyridin-3-yl)amino)ethyl)-3-(2-hydroxyethyl)-4,7-dimethyl-3,4-dihydro-5H-pyrazolo[3,4-c]isoquinolin-5-one]
< 1	Cc1cc(C(C)Nc2ccc(Cl)nc2-c2cncnc2)c2c(c1)c(=O)n(C)c1c2cnn1CCO (centres unmarked) [Example 252, 9-(1-((6-chloro-2-(pyrimidin-5-yl)pyridin-3-yl)amino)ethyl)-3-(2-hydroxyethyl)-4,7-dimethyl-3,4-dihydro-5H-pyrazolo[3,4-c]isoquinolin-5-one]
< 1	CNC(=O)c1ccc(-c2nc(Cl)ccc2NC(C)c2cc(C)cc3c(=O)n(C)c4c(cnn4CCO)c23)cn1 (centres unmarked) [Example 253, 5-[6-Chloro-3-[1-[3-(2-hydroxyethyl)-4,7-dimethyl-5-oxo-pyrazolo[3,4-c]isoquinolin-9-yl]ethylamino]-2-pyridyl]-N-methyl-pyridine-2-carboxamide]
< 1	Cc1cc(C(C)Nc2ccc(Cl)nc2-c2ccc(=O)n(C)c2)c2c(c1)c(=O)n(C)c1c2cnn1CCO (centres unmarked) [Example 254, 9-[1-[[6-chloro-2-(1-methyl-6-oxo-3-pyridyl)-3-pyridyl]amino]ethyl]-3-(2-hydroxyethyl)-4,7-dimethyl-pyrazolo[3,4-c]isoquinolin-5-one]
< 1	Cc1cc(C(C)Nc2ccc(Cl)nc2-c2ccn(C)c(=O)c2)c2c(c1)c(=O)n(C)c1c2cnn1CCO (centres unmarked) [Example 255, 9-[1-[[6-chloro-2-(1-methyl-2-oxo-4-pyridyl)-3-pyridyl]amino]ethyl]-3-(2-hydroxyethyl)-4,7-dimethyl-pyrazolo[3,4-c]isoquinolin-5-one]
